Experimental data reported in PubChem BioAssay AID179 (DTP/NCI, 2004).
Activity calls are given as the source filed them.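 How the source made its calls: active means compounds giving half or more protection of infected cells from virus-caused growth loss, again on retest; inactive means the rest.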

Test system: CEM cells HIV-1 protection, formazan growth assay
Assay: NCI AIDS Antiviral Assay
Conditions: for IC50: measured here: growth of uninfected CEM cells
How it was run: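 Human CEM cells, uninfected and HIV-1-infected, exposed to five drug concentrations; growth measured by soluble formazan assay and scored as percent protection from infection, with protecting compounds retested.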

Compound	EC50	IC50	outcome
CC1=C(C(=O)Nc2ccc(Cl)c(C(=O)OC(C)C)c2)SCCO1	0.398 µM	74.1 µM	–
COc1cc2c(cc1OC)-c1cc3cc(OC)c(OC)cc3n1CC2	> 4.27 µM	2.4 µM	–
COc1cc2oc3c(C)c(=O)cc4oc(-c5ccccc5)cc(c2c2c1CCC(c1ccccc1)O2)c43 (configuration not stated)	> 4.07 µM	> 4.07 µM	–
COc1ccc(OC2OC(CO)C(OCc3ccccc3)C(OCc3ccccc3)C2OCc2ccccc2)cc1 (configuration not stated)	> 200 µM	12 µM	–
COc1c(C(=O)c2ccc([N+](=O)[O-])cc2)cc(C(C)(C)C)cc1C(C)(C)C	–	–	inactive
N#CCCn1[nH]c(=O)c(Cl)c(Cl)c1=O	> 1070 µM	5.62 µM	–
O=C1C=CC2=C3c4cc(O)c(O)cc4CC3(O)COC2=C1O (configuration not stated)	> 45.7 µM	40.7 µM	–
NC(=S)C(=S)N=Cc1c(O)c2ccccc2oc1=O	> 200 µM	102 µM	–
CC1CC(C)(C)N=C(CCC[N+](=O)[O-])O1 (configuration not stated)	> 200 µM	> 200 µM	–
Oc1ccc(C2O[C@H](c3ccc(O)cc3)C(c3cc(O)cc(O)c3)C2c2cc(O)cc3c2C(c2cc(O)cc4c2C(c2cc(O)cc(O)c2)[C@H](c2ccc(O)cc2)O4)[C@@H](c2ccc(O)cc2)O3)cc1 (some centres not stated)	36.3 µM	214 µM	–
Nc1ncc(C=O)c(NCC2(CO)CCC2)n1	> 200 µM	20.9 µM	–
O=P(O)(CN1CCN(CP(=O)(O)c2ccccc2)CCN(CP(=O)(O)c2ccccc2)CC1)c1ccccc1	> 200 µM	4.07 µM	–
Cc1ccc2c(c1)nc1n2C(N)=Nc2ccccc2S1	> 200 µM	11.5 µM	–
COC(=O)C1OC(OC2=C(c3ccc(OC)cc3)C(=O)C(OC3OC(C(=O)OC)C(OC(C)=O)C(OC(C)=O)C3OC(C)=O)=C(c3ccc(OC)cc3)C2=O)C(OC(C)=O)C(OC(C)=O)C1OC(C)=O (configuration not stated)	> 28.8 µM	4.57 µM	–
Cc1ccccc1C(C#N)/C(=N/NC(N)=S)C(=O)Nc1c(C)cccc1C (configuration not stated)	> 245 µM	224 µM	–
CCOC(=O)C(C)[P+](c1ccccc1)(c1ccccc1)c1ccccc1 (configuration not stated)	> 200 µM	3.09 µM	–
O=C(O)/C=C\C(=O)Nc1ccc(S(=O)(=O)c2ccc(NC(=O)/C=C\C(=O)O)cc2)cc1	> 562 µM	> 562 µM	–
Cc1cc2c(c3oc(=O)cc(C)c13)[C@@H](OC(=O)C13CCC(C)(C(=O)O1)C3(C)C)[C@@H](OC(=O)C13CCC(C)(C(=O)O1)C3(C)C)C(C)(C)O2 (some centres not stated)	0.912 µM	> 200 µM	–
O=C1CCC2(c3ccccc3)Nc3cc([N+](=O)[O-])ccc3N12 (configuration not stated)	> 24.5 µM	> 24.5 µM	–
CCn1c2ccccc2c2ccc3c(c21)C(=O)c1ccccc1C3=O	> 3.24 µM	> 3.24 µM	–
O=C(CC1C(=O)Nc2ccccc2S1=O)Nc1ccccc1 (configuration not stated)	> 22.9 µM	> 22.9 µM	–
CN1CCN(C)C(=O)CSSCC1=O	> 151 µM	> 151 µM	–

Compound	EC50	IC50	outcome
COC(=O)c1ccccc1N(C(=O)c1ccccc1)c1ccccc1C	–	–	inactive
O=C(Nc1ccc(Cl)cc1Cl)C1C(=O)C(=O)N(c2ccc(Cl)cc2Cl)C1=O (configuration not stated)	> 8.51 µM	> 8.51 µM	–
CC1(C)OC2C3CC(C2O1)C1C3C2(Cl)CC1(Cl)C(Cl)=C2Cl (configuration not stated)	–	–	inactive
COC(=O)c1cc(C(c2cc(C(=O)OC)c(O)cc2C)C(Cl)(Cl)Cl)c(C)cc1O	> 200 µM	5.75 µM	–
ClC1(Cl)C2CCOC21n1cnc2ccccc21 (configuration not stated)	> 200 µM	102 µM	–
Cc1cc(=O)oc2cc(OCC(O)COC(C)C)ccc12 (configuration not stated)	> 200 µM	129 µM	–
COc1ccc(-n2c(C)nc3ccc(N=Cc4ccccc4)cc3c2=O)cc1	> 200 µM	> 200 µM	–
CCc1cccc(CC)c1NC(=S)NC(=O)c1ccc(Br)cc1	> 18.2 µM	> 18.2 µM	–
O=C(CCN(C(=O)O)S(=O)(=O)c1ccc(NC(=O)c2ccccc2)cc1)Nc1ccccc1	> 537 µM	> 537 µM	–
O=C1CCC2(c3ccc(Cl)cc3)SCCN12 (configuration not stated)	> 200 µM	145 µM	–
C/C(O)=C(\N=O)C(=O)NCc1ccccc1	> 1120 µM	> 1120 µM	–
N#C/C=C/c1cccc(Br)c1	> 47.9 µM	> 47.9 µM	–
O=C(Nc1ccc(Cl)cc1)Nc1ccc(Cl)c(C(F)(F)F)c1	> 200 µM	2.69 µM	–
CC[C@H](C)[C@H](NC(=O)N(CCC#N)CCN(CCN(C(=O)N[C@@H](Cc1ccccc1)C(=O)OC)c1ccccc1)C(=O)N[C@H](C(=O)OC)C(C)C)C(=O)OC	–	–	inactive
O=C1CN2CC(c3ccccc3)OC2c2ccccc2N1 (configuration not stated)	> 224 µM	> 224 µM	–
CCC=C(c1cc(Cl)c(OC)c(C(=O)OC)c1)c1cc(Cl)c(OC)c(C(=O)OC)c1	> 8.32 µM	> 8.32 µM	–
CCN(CC)c1cc2c3c(c1)CCCN3CCC2	> 100 µM	95.5 µM	–
CC12CCC(=O)N1c1cccnc1N2 (configuration not stated)	> 1320 µM	1120 µM	–
Cc1ccc2ccc3c(=O)cc(C)[nH]c3c2n1	9.77 µM	32.4 µM	–
Cc1ccnc2c1c(=O)c1ccccc1n2C	> 151 µM	41.7 µM	–
CC(=O)NC(CCCCNC(=O)NCCCl)C(=O)NCc1ccccc1 (configuration not stated)	> 646 µM	> 646 µM	–
